From PubChem BioAssay (NCI)
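Compound exposure: 48 hours, 5 concentrations, 96-well plates. Abbreviation: GI50, concentration required for 50% inhibition of growth. TGI: total growth inhibition.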

Columns and labels:
Assay in all cases: inhibition of tumour cell growth, NCI panel, 48 h
A549 NSCLC = system: A549 NSCLC
ACHN renal = system: ACHN renal
HCT-15 colon = system: HCT-15 colon
HT29 colon = system: HT29 colon
MDA-MB-231 breast = system: MDA-MB-231 breast
NCI-H460 lung = system: NCI-H460 lung
SF-268 CNS = system: SF-268 CNS
SK-MEL-5 melanoma = system: SK-MEL-5 melanoma
SN12C renal = system: SN12C renal
UO-31 renal = system: UO-31 renal

Compound	GI50 (A549 NSCLC) [µM]	TGI (A549 NSCLC) [µM]	GI50 (ACHN renal) [µM]	TGI (ACHN renal) [µM]	GI50 (HCT-15 colon) [µM]	TGI (HCT-15 colon) [µM]	GI50 (HT29 colon) [µM]	TGI (HT29 colon) [µM]	GI50 (MDA-MB-231 breast) [µM]	TGI (MDA-MB-231 breast) [µM]	GI50 (NCI-H460 lung) [µM]	TGI (NCI-H460 lung) [µM]	GI50 (SF-268 CNS) [µM]	TGI (SF-268 CNS) [µM]	GI50 (SK-MEL-5 melanoma) [µM]	TGI (SK-MEL-5 melanoma) [µM]	GI50 (SN12C renal) [µM]	TGI (SN12C renal) [µM]	GI50 (UO-31 renal) [µM]	TGI (UO-31 renal) [µM]
O=c1cc(-c2ccccc2)oc2c1ccc1ccccc12	23.8	> 100	17.6	90	30	> 100	25.6	> 100	12.5	67.9	28.6	> 100	37.3	> 100	20.2	65.3	19.6	> 100	8.55	> 100
S=C1SCN(Cc2ccccc2)CN1Cc1ccccc1	15.4	37.6	14.8	28.2	4.13	17.1	3.89	15.1	3.04	10.1	31	> 100	9.55	> 37.6	13.6	28.1	5.01	18.5	5.43	19
CCc1cccc(NC(=O)Nc2ccc(Oc3ccc4nc(NC(=O)OC)[nH]c4c3)cc2)c1	5.35	> 15.3	10.8	> 25	2.93	> 25	2.04	> 13.4	7.76	> 25	3.4	12.4	4.33	15.9	1.29	7.15	8.43	> 25	> 25	> 25
COc1ccc2nc3c(cc2c1)C(=O)CC(c1ccccc1)C3 (centres undefined)	2.05	> 100	0.853	> 100	2.19	> 100	0.439	> 100	3	> 100	1.44	> 100	> 100	> 100	0.979	44.5	0.732	> 100	0.589	> 100
COc1ccc(-c2cc(-c3ccc(OC)cc3)nc(NCCCNc3ccnc4cc(Cl)ccc34)n2)cc1	1.81	3.66	1.82	3.22	1.68	3.45	1.56	3.06	1.95	3.59	1.77	3.32	1.65	3.3	1.54	2.89	1.71	3.34	1.32	2.6
CCN(CC)CCn1c(=O)c2cc(OC)c(OC)cc2c2ccc3cc4c(cc3c21)OCO4	0.725	8.53	0.266	12	1.61	10.3	0.195	6.16	1.29	3.66	0.0766	1.41	0.228	37.8	0.193	0.457	0.455	20.2	0.405	17.3
O=C1c2ccccc2C(=O)c2c1oc1c2c(=O)[nH]c2ccc(Cl)cc21	1.03	2.92	0.203	0.577	0.208	0.512	3.7	12.9	0.165	0.519	0.22	0.489	0.456	3.99	0.305	1.21	0.198	0.463	0.195	0.605
Cc1cc(=O)oc2cc3oc(N(C)c4ccccc4)nc(=O)c3cc12	–	> 100	–	> 100	–	> 100	–	> 100	–	> 100	–	> 100	–	> 100	–	> 100	–	> 100	–	> 100
C#CCOC(=O)/C=C/C(=O)Oc1ccc2c(C)cc(=O)oc2c1	> 100	> 100	> 100	> 100	> 100	> 100	> 100	> 100	> 100	> 100	> 100	> 100	> 100	> 100	> 100	> 100	> 100	> 100	> 100	> 100
CCCCc1n(Cc2ccc3ccccc3n2)cc[n+]1Cc1ccc2ccccc2n1	4.75	18.6	17	42	14.8	31.5	0.801	7.89	1.77	9.35	1.87	11.3	2.18	14.3	0.827	2.21	1.41	11.1	11.7	24.5
FC(F)(F)c1cc(NC(=S)N2c3ccccc3-n3cccc3C2c2cccnc2)cc(C(F)(F)F)c1 (centres undefined)	9.25	26.8	7.11	62	4.76	27.7	12.5	34.5	8.39	31.1	10.5	23.4	9.91	28.5	11.6	23.9	12.1	35.9	19.9	36.9
C/C(CC(C)(C)N1CC1)=N\NC(=O)Nc1cccc2ccccc12	3.53	14.2	2.99	11.8	3.24	17.4	3.5	13.7	3.25	9.42	2.86	10	3.72	16.2	3.19	12.2	5.76	77.9	2.58	12.2
O=S(=O)(O)n1ccnc1 (tested in a mixture with another compound)	–	> 100	–	> 100	–	> 100	–	> 100	–	> 100	–	> 100	–	> 100	–	> 100	–	> 100	–	> 100
Fc1ccc(-c2ncn(CCCN3CCOCC3)c2-c2ccncc2)cc1	> 25	> 25	> 25	> 25	> 25	> 25	> 25	> 25	> 25	> 25	> 25	> 25	> 25	> 25	> 25	> 25	> 25	> 25	> 25	> 25
CC(C)=Cc1cccc2[nH]c(O)c(N=Nc3ccc(S(N)(=O)=O)cc3)c12	4.1	> 25	2.09	> 25	4.32	> 25	3.36	> 25	7.17	> 25	1.32	> 20.5	12.4	> 25	–	> 25	> 25	> 25	> 25	> 25
CC(=O)Nc1ccc(OC(C)=O)cc1	< 0.01	30.8	< 0.01	76	< 0.01	16.6	< 0.01	0.776	< 0.01	2.04	< 0.01	16.9	< 0.0103	46.2	< 0.01	< 0.01	< 0.01	49.1	0.252	26
